Experimental data as given in patent US20140093457A1, “Compositions, methods and kits for remineralization and inhibition of dental caries in teeth” (President and Fellows of Harvard College, priority 2010, published 2014).
Where two headings read alike, the source gives them in different places.

Key:
[1] = hydrogen peroxide 38%
Procedure: The efficacy of removal of the probe by the solution was determined by criteria such as extent of fluorescence remaining on a tooth after rinse, or fluorescence extracted from hydroxyapatite into a rinse solution.

[2] = Removal of OsteoSense 750 from hydroxyapatite, spectrophotometry at 750 nm; conditions: hydrogen peroxide 30%, phosphoric acid 40%
Procedure: The tubes were vortexed, and the mixture was allowed to settle to obtain a supernatant. Each supernatant was collected and analyzed for probe content using a spectrophotomer.
The HA sample was washed with PBS and a spectrophotometric scan of the wash solution was performed.

[3] = RFU comparison of solutions to release OsteoSense 750 from HA
Procedure: Variables included conditions of pH, temperature, and presence of 1% calcium chloride.
Three conditions were tested: incubation for 15 minutes at 37° C. after vortexing; adjusting pH to 6.5 at 23° C. after vortexing; and addition of 1% calcium chloride to each solution and incubation at room temperature after vortexing.

[4] = 1% solution with calcium chloride (1%), room temperature
[5] = 1% solution, 15 minutes at 37° C.
[6] = 1% solution, pH 6.5, room temperature
[7] = 5% solution with calcium chloride (1%), room temperature
[8] = 5% solution, 15 minutes at 37° C.
[9] = 5% solution, pH 6.5, room temperature
[10] = 10% solution with calcium chloride (1%), room temperature
[11] = 10% solution, 15 minutes at 37° C.
[12] = 10% solution, pH 6.5, room temperature
[13] = 20% solution with calcium chloride (1%), room temperature
[14] = 20% solution, 15 minutes at 37° C.
[15] = 20% solution, pH 6.5, room temperature

OO [hydrogen peroxide]
fluorescence of OsteoSense 750 bound to caries lesion after application with a syringe [1]: eliminated fluorescence | fluorescence of OsteoSense 750 bound to the tooth after rinse ([1]; ten minutes after application): substantially eliminated | fluorescence of OsteoSense 750 bound to the tooth after rinse ([1]; three minutes after application): substantially reduced | spectrometric signal at 750 nm in supernatant (release of OsteoSense 750 from HA) [2]: no signal at 750 nm

O=P(O)(O)O [phosphoric acid (PA), phosphoric acid]
spectrometric signal at 750 nm in supernatant (release of OsteoSense 750 from HA) [2]: definite peak at 750 nm | % released of total OsteoSense [3, 4]: 1.01% | % released of total reference value [3, 4]: 2.27% | Raw RFU value [3, 4]: 0.38 RFU | % released of total OsteoSense [3, 5]: 4.61% | % released of total reference value [3, 5]: 7.36% | Raw RFU value [3, 5]: 1.73 RFU | % released of total OsteoSense [3, 6]: 6.17% | % released of total reference value [3, 6]: 18.74% | Raw RFU value [3, 6]: 2.31 RFU | % released of total OsteoSense [3, 7]: 9.44% | % released of total reference value [3, 7]: 40.79% | Raw RFU value [3, 7]: 3.54 RFU | % released of total OsteoSense [3, 8]: 9.78% | % released of total reference value [3, 8]: 18.94% | Raw RFU value [3, 8]: 3.67 RFU | % released of total OsteoSense [3, 9]: 28.38% | % released of total reference value [3, 9]: 39.54% | Raw RFU value [3, 9]: 10.64 RFU | % released of total OsteoSense [3, 10]: 10.57% | % released of total reference value [3, 10]: 43.29% | Raw RFU value [3, 10]: 3.97 RFU | % released of total OsteoSense [3, 11]: 4.37% | % released of total reference value [3, 11]: 9.10% | Raw RFU value [3, 11]: 1.64 RFU | % released of total OsteoSense [3, 12]: 45.32% | % released of total reference value [3, 12]: 67.03% | Raw RFU value [3, 12]: 17.00 RFU | % released of total OsteoSense [3, 13]: 5.12% | % released of total reference value [3, 13]: 11.99% | Raw RFU value [3, 13]: 1.92 RFU | % released of total OsteoSense [3, 14]: 3.54% | % released of total reference value [3, 14]: 8.51% | Raw RFU value [3, 14]: 1.33 RFU | % released of total OsteoSense [3, 15]: 25.34% | % released of total reference value [3, 15]: 39.91% | Raw RFU value [3, 15]: 9.50 RFU
